Experimental data from ChEMBL document CHEMBL3132769, “Fragment growing to retain or alter the selectivity of anchored kinase hinge-binding fragments” (Medchemcomm, 2014).

What was measured:
[1] = target: T1, Serine/threonine-protein kinase Nek2 (Homo sapiens) (UniProt P51955); assay: Inhibition of human full length NEK2 expressed in baculovirus assessed as substrate phosphorylation using fluorescence-labelled peptides as substrate at 0.2 uM after 90 mins by microfluidic peptide phosphorylation assay
T1 sequence (whole entry): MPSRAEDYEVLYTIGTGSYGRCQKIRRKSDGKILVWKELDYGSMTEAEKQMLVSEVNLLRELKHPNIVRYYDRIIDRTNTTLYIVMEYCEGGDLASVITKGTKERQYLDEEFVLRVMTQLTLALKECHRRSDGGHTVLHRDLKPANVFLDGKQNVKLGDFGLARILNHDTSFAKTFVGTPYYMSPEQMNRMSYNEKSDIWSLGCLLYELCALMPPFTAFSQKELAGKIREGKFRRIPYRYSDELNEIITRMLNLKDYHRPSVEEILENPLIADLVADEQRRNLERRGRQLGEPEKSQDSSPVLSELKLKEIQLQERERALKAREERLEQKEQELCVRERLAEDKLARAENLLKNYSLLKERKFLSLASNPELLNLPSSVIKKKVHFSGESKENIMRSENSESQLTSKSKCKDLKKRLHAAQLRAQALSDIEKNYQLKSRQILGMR

[2] = target: Insulin-like growth factor 1 receptor (Homo sapiens) (UniProt P08069); assay: Inhibition of human IGF1R catalytic domain expressed in baculovirus assessed as substrate phosphorylation using fluorescence-labelled peptides as substrate at 2 uM after 90 mins by microfluidic peptide phosphorylation assay
[3] = target: RAF proto-oncogene serine/threonine-protein kinase (Homo sapiens) (UniProt P04049); assay: Inhibition of human truncated c-Raf expressed in baculovirus assessed as substrate phosphorylation using fluorescence-labelled peptides as substrate at 0.1 uM after 90 mins by microfluidic peptide phosphorylation assay
Chain of RAF proto-oncogene serine/threonine-protein kinase (Homo sapiens) (P04049 whole entry, the tested form may be a part): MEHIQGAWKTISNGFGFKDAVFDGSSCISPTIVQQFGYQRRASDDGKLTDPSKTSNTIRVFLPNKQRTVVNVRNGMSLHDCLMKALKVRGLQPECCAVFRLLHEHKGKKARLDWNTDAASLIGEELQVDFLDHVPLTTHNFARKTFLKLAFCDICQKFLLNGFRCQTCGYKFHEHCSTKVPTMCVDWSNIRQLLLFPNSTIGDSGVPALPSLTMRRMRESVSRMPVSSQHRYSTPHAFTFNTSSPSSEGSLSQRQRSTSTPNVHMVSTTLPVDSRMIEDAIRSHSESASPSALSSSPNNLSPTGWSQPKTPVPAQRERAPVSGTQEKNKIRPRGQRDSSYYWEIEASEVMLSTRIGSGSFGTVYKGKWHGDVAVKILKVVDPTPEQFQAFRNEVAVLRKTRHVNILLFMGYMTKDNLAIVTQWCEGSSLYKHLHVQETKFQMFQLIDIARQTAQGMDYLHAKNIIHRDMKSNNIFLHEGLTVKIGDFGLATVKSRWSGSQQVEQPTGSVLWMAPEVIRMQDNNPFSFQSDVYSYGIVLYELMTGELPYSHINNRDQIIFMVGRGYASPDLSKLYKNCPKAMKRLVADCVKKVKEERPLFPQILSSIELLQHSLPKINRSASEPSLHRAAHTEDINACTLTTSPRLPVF

[4] = target: Serine/threonine-protein kinase PAK 2 (Homo sapiens) (UniProt Q13177); conditions: 0.1 uM
Chain of Serine/threonine-protein kinase PAK 2 (Homo sapiens) (Q13177 whole entry): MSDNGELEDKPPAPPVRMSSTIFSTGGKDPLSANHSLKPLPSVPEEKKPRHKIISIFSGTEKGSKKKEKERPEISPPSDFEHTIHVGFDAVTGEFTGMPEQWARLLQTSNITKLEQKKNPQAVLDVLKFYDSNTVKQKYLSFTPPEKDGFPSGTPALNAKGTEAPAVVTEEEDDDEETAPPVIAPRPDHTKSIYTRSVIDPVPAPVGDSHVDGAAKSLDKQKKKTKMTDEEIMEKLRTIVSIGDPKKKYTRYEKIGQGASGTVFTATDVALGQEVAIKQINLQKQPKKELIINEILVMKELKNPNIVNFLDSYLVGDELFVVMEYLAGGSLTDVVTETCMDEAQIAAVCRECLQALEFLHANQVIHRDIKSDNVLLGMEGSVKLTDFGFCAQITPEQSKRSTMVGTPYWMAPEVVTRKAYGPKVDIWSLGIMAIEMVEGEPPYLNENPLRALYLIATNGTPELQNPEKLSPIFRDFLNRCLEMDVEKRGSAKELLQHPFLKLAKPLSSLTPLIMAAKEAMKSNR
Description: Inhibition of human truncated PAK2 expressed in Escherichia coli cell assessed as substrate phosphorylation using fluorescence-labelled peptides as substrate at 0.1 uM after 90 mins by microfluidic peptide phosphorylation assay

[5] = target: Protein kinase C beta type (Homo sapiens) (UniProt P05771); assay: Inhibition of human full length PKC beta2 expressed in baculovirus assessed as substrate phosphorylation using fluorescence-labelled peptides as substrate at 1000 uM after 90 mins by microfluidic peptide phosphorylation assay
Chain of Protein kinase C beta type (Homo sapiens) (P05771 2-671 limits assumed): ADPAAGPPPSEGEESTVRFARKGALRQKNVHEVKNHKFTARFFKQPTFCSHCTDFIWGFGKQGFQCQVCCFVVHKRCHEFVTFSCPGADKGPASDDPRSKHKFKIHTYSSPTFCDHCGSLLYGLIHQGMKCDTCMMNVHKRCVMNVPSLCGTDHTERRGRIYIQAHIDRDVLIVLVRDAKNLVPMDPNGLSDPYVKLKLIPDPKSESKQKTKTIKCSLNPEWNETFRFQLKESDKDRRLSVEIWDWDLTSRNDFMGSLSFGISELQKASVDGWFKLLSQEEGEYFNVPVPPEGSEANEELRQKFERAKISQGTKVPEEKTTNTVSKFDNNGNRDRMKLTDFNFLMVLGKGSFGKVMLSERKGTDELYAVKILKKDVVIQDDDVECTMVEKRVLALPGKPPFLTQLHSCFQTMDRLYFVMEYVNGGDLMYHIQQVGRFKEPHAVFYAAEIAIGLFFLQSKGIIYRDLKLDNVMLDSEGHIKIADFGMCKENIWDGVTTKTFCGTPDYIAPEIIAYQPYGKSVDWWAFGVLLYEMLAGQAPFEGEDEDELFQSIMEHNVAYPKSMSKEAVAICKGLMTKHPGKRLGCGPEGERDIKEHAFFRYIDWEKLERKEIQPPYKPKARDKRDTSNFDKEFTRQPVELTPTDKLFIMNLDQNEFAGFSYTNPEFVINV

[6] = target: T2, Cytoplasmic tyrosine-protein kinase BMX (Homo sapiens) (UniProt P51813); assay: Inhibition of human full length BMX expressed in baculovirus assessed as substrate phosphorylation using fluorescence-labelled peptides as substrate at 420 uM after 90 mins by microfluidic peptide phosphorylation assay
T2 sequence (whole entry): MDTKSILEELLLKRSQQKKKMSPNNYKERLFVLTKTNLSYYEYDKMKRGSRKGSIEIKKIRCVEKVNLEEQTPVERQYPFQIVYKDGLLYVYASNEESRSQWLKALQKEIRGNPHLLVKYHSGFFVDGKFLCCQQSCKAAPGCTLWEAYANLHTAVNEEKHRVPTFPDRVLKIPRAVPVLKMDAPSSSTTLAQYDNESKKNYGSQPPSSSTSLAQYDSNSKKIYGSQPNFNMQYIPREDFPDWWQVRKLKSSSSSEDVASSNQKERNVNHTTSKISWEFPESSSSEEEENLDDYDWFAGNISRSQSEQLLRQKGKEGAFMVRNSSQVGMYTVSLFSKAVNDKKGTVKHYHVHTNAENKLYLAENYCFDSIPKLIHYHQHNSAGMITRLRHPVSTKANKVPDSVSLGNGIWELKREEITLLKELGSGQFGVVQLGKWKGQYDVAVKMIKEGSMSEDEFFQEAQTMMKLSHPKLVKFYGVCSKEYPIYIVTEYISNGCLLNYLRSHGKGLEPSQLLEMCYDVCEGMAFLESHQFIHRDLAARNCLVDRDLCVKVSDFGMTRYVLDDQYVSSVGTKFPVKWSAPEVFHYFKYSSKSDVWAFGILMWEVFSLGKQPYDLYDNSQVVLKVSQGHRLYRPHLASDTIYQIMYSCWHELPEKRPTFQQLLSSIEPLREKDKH

[7] = tested on: T3, Receptor-type tyrosine-protein kinase FLT3 (Homo sapiens), P36888 [D835Y]; assay: Inhibition of human FLT3 D835Y mutant catalytic domain expressed in baculovirus assessed as substrate phosphorylation using fluorescence-labelled peptides as substrate at 420 uM after 90 mins by microfluidic peptide phosphorylation assay
T3 sequence (whole entry): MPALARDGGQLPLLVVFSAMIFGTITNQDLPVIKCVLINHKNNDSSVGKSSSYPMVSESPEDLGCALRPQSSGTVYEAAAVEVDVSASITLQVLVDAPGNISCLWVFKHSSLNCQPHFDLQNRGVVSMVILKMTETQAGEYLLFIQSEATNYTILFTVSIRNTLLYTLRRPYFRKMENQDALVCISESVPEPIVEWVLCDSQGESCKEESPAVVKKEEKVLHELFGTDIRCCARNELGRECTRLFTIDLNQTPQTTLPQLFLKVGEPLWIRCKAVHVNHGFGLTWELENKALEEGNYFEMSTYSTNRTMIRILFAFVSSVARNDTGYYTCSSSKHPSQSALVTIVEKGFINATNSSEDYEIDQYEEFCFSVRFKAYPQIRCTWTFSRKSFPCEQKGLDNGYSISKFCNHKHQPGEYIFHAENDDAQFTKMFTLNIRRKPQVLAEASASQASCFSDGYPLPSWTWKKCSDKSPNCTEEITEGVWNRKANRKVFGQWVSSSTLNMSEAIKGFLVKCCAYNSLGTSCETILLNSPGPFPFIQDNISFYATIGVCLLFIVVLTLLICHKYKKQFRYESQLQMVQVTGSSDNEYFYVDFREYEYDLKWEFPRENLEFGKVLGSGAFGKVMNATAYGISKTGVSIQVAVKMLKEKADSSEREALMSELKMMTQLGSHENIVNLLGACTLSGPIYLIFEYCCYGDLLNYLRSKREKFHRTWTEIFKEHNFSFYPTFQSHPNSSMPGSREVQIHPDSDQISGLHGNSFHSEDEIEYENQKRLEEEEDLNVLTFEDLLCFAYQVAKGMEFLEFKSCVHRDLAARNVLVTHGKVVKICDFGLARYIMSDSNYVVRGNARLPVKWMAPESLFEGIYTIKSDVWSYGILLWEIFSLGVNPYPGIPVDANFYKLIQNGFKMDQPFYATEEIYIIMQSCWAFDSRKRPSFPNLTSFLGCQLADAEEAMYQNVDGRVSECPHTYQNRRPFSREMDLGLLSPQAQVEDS

Compound: Clc1ccc(C2(c3ccc(-c4ncnc5[nH]cnc45)cc3)CCNCC2)cc1
- inhibition [1]: 4.5%

Compound: NC1CCN(c2ncnc3[nH]ccc23)CC1
- inhibition [2]: 0%

Compound: C[C@H](CN(C)C)Oc1nc(Nc2cc3cccc(Cl)c3cn2)cnc1C#N
- inhibition [3]: 4%
- inhibition [4]: 0%

Compound: c1cnc2[nH]ccc2c1
- inhibition [5]: 21%

Compound: c1nc(N2CCOCC2)c2nc[nH]c2n1
- inhibition [6]: 62.5%
- inhibition [7]: 93%
